Data from patent US20090069373A1, “Quinoline Acids” (Wyeth, priority 2007, published 2009).
pEC50, pIC50: −log10 of the molar value.

What was measured:
[1] = target: T1, human LXRβ (Homo sapiens, UniProt P55055); test: Ligand-binding test procedure for human LXRβ (3H T0901317 competition, flash plates); settings: for Binding ratio a/b: IC50 (μM) LXRα binding/IC50 (μM) LXRβ binding; for pIC50: biotinylated hLXRβ, tracer 3H T0901317
T1 construct: biotin (biotinylated; biotinylation tag not described); made in house; host or cells: E. coli
T1 sequence (P55055 1-460): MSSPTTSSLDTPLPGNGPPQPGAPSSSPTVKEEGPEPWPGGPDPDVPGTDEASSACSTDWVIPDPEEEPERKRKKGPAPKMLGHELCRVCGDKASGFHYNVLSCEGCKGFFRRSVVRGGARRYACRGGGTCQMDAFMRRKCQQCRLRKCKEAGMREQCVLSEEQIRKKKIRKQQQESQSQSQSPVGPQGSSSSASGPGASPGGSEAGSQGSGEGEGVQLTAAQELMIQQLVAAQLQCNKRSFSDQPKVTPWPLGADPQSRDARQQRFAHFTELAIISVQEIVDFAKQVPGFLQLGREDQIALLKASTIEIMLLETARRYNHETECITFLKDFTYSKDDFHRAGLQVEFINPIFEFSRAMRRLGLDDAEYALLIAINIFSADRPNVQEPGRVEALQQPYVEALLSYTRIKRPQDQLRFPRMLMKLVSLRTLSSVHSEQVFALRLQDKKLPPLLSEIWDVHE

[2] = target: T2, human LXRα (Homo sapiens, UniProt Q13133); test: Ligand-binding test procedure for human LXRα (3H T0901317 competition, flash plates); settings: biotinylated hLXRα, tracer 3H T0901317
T2 construct: biotin (biotinylated; biotinylation tag not described); made in house; host or cells: E. coli
T2 sequence (Q13133 1-447): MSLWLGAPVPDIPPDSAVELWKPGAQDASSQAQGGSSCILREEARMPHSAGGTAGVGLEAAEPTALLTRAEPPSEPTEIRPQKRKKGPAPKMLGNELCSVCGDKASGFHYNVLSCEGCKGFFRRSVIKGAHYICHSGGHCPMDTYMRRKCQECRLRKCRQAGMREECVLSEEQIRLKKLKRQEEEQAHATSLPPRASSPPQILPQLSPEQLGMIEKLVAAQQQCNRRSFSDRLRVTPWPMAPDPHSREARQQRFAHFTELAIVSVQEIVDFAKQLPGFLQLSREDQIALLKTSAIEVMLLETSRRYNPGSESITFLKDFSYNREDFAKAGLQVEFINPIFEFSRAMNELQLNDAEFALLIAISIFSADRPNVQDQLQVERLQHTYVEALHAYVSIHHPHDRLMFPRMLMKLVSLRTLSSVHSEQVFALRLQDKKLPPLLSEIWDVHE
Method in brief: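 Competition binding of test ligands against 5 nM ³H tracer solution (pre-mix concentration) on biotinylated hLXRα from E. coli extract, captured on streptavidin flash plates (Bmax ~4000 cpm). Ligand dilution series made in DMSO. Incubated overnight at +4 °C; bound radioactivity counted after washing.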

[3] = test system: ABCA1 gene; test: Quantitative analysis of ABCA1 gene regulation in THP-1 cells (real-time RT-PCR); format: cell-based, human; settings: differentiated THP-1 cells, ABCA1 mRNA, 18 hrs; for pEC50: Homo sapiens; for THP cells ABCA1 Ag. (%): LXR agonist reference at 1.0 uM as positive control
Procedure: Quantitative Analysis of ABCA1 Gene Regulation in THP-1 Cells. […] Materials and Methods Cell culture: The THP-1 monocytic cell line (ATCC # TIB-202) was obtained from American Type Culture Collection (Manassas, Va.) and cultured in RPMI 1640 medium (Gibco, Carlsbad, Calif.) containing 10% FBS, 2 mM L-glutamine, and 55 uM beta-Mercaptoethanol (BME). […] Louis, Mo.) for three days to induce differentiation into adherent macrophages. Differentiated THP-1 cells were treated with test compounds or ligands dissolved in DMSO (Sigma, D-8779) in culture medium lacking phorbal ester. […] L., J. Med. Chem. (2000), 45:1963-1966.). Results of antagonist analysis are expressed as % antagonism and IC50 (in μM).

SMILES | Binding ratio a/b [1] | pIC50 [1] | pIC50 [2] | pEC50 [3] | THP cells ABCA1 Ag. (%) [3] [%]
O=C(O)Cc1ccc(NCc2cncc(-c3ccnc4c(C(F)(F)F)cccc34)c2)cc1 [Example 120, {4-[({5-[8-(trifluoromethyl)quinolin-4-yl]pyridin-3-yl}methyl)amino]phenyl}acetic acid] | – | < 6.00 | < 6.00 | – | –
O=C(O)c1cnc(Oc2cccc(-c3c(Cc4ccccc4)cnc4c(C(F)(F)F)cccc34)c2)cn1 [Example 121, 5-{3-[3-Benzyl-8-(trifluoromethyl)quinolin-4-yl]phenoxy}pyrazine-2-carboxylic acid] | 1 | 5.64 | 5.77 | – | –
O=C(O)c1cc(Br)cc(Oc2cccc(-c3c(Cc4ccccc4)cnc4c(Cl)cccc34)c2)c1 [Example 122, 3-[3-(3-Benzyl-8-chloroquinolin-4-yl)phenoxy]-5-bromobenzoic acid] | 2 | 6.11 | 5.82 | – | –
O=C(O)c1ccc(Cn2ccc3c(-c4c(Cc5ccccc5)cnc5c(C(F)(F)F)cccc45)cccc32)cc1 [Example 127, 4-({4-[3-Benzyl-8-(trifluoromethyl)quinolin-4-yl]-1H-indol-1-yl}methyl)benzoic acid] | 1 | 5.61 | 5.67 | – | –
Cc1ccc(C(=O)O)cc1C#Cc1cccc(-c2c(Cc3ccccc3)cnc3c(C(F)(F)F)cccc23)c1 [Example 129, 3-({3-[3-Benzyl-8-(trifluoromethyl)quinolin-4-yl]phenyl}ethynyl)-4-methylbenzoic acid] | 1 | 6.22 | 6.18 | – | –
O=C(O)c1cccc(-c2cccc(-c3c(Cc4ccccc4)cnc4c(C(F)(F)F)cccc34)c2)c1 [Example 130, 3′-[3-Benzyl-8-(trifluoromethyl)quinolin-4-yl]biphenyl-3-carboxylic acid] | – | 5.62 | 5.88 | – | –
COc1ccc(C(=O)O)cc1C#Cc1cccc(-c2c(Cc3ccccc3)cnc3c(C(F)(F)F)cccc23)c1 [Example 131, 3-({3-[3-Benzyl-8-(trifluoromethyl)quinolin-4-yl]phenyl}ethynyl)-4-methoxybenzoic acid] | 2 | 5.83 | 5.58 | – | –

Stronger by pIC50 [1], values ahead:

Binding ratio a/b [1] | pIC50 [1] | pIC50 [2] | pEC50 [3] | SMILES | THP cells ABCA1 Ag. (%) [3] [%]
2 | 6.32 | 6.14 | – | O=C(O)c1cc(F)cc(Oc2cccc(-c3c(Cc4ccccc4)cnc4c(Cl)cccc34)c2)c1 [Example 123, 3-[3-(3-Benzyl-8-chloroquinolin-4-yl)phenoxy]-5-fluorobenzoic acid] | –
1 | 6.64 | 6.57 | – | O=C(O)c1cccc(Oc2cccc(-c3c(Cc4ccccc4)cnc4c(Cl)cccc34)c2)c1 [Example 125, 3-[3-(3-Benzyl-8-chloroquinolin-4-yl)phenoxy]benzoic acid] | –
2 | 6.87 | 6.62 | – | O=C(O)c1cccc(Oc2cccc(-c3c(Cc4ccccc4)cnc4c(C(F)(F)F)cccc34)c2)c1 [Example 126, 3-{3-[3-Benzyl-8-(trifluoromethyl)quinolin-4-yl]phenoxy}benzoic acid] | –
32 | 7.52 | 6.02 | 5.32 | O=C(O)Cc1cccc2c(NCc3cncc(-c4c(Cc5ccccc5)cnc5c(C(F)(F)F)cccc45)c3)cccc12 [Example 3, {5-[({5-[3-Benzyl-8-(trifluoromethyl)quinolin-4-yl]pyridin-3-yl}methyl)amino]-1-naphthyl}acetic acid] | 69.1
30 | 7.59 | 6.11 | 5.47 | O=C(O)Cc1cccc2c(OCc3cccc(-c4ccnc5c(C(F)(F)F)cccc45)c3)cccc12 [Example 5, [5-({3-[8-(Trifluoromethyl)quinolin-4-yl]benzyl}oxy)-1-naphthyl]acetic acid] | 69.4
7 | 7.72 | 6.86 | – | Cc1cc(C(=O)O)ccc1C#Cc1cccc(-c2c(Cc3ccccc3)cnc3c(C(F)(F)F)cccc23)c1 [Example 128, 4-({3-[3-Benzyl-8-(trifluoromethyl)quinolin-4-yl]phenyl}ethynyl)-3-methylbenzoic acid] | –
48 | 7.82 | 6.13 | 5.42 | O=C(O)Cc1cccc2c(NCc3cccc(-c4ccnc5c(C(F)(F)F)cccc45)c3)cccc12 [Example 1, [5-({3-[8-(Trifluoromethyl)quinolin-4-yl]benzyl}amino)-1-naphthyl]acetic acid] | 91.15
22 | 7.89 | 6.53 | 5.95 | Cc1cnc2c(C(F)(F)F)cccc2c1-c1cccc(COc2cccc3c(CC(=O)O)cccc23)c1 [Example 9] | 122.6
22 | 8.00 | 6.68 | 5.58 | Cc1cnc2c(C(F)(F)F)cccc2c1-c1cccc(CNc2cccc3c(CC(=O)O)cccc23)c1 [Example 13, [5-({3-[3-methyl-8-(trifluoromethyl)quinolin-4-yl]benzyl}amino)-1-naphthyl]acetic acid] | 107.8
